The values that follow come from patent US5399566A, “Pyridine derivatives having angiotensin II antagonism” (Meiji Seika Kabushiki Kaisha, priority 1990, dated 1995).

Data set [1] deals with T1, contraction response to angiotensin II at the isolated thoracic aorta of rabbit (Oryctolagus cuniculus, UniProt P34976).
T1 construct: A strip of thoracic aorta of a male rabbit (2.5-3.0 kg) was prepared by the usual method; from tissue; host or cells: rabbit thoracic aorta strip
T1 sequence (P34976 1-359): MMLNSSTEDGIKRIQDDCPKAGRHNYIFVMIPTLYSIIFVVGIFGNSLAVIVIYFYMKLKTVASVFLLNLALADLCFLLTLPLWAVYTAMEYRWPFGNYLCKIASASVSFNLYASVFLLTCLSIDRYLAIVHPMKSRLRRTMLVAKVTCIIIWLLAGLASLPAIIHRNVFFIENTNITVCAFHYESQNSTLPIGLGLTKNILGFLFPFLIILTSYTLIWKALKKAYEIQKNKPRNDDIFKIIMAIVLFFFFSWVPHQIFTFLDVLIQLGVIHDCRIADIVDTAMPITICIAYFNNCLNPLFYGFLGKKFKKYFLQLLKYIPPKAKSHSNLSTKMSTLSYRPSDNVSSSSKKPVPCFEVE
Description: In vitro angiotensin II antagonism, isolated rabbit thoracic aorta (Schild pA2). The class given is cell-based. The conditions noted are these: Schild plot. An excerpt: (§1) The angiotensin II antagonistic activities in vitro were compared on the basis of the intensities (pA2 value) of antagonizing the contraction response to angiotensin II at the isolated thoracic aorta of rabbit. The in vivo activities were examined by comparing the inhibitory effects on the hypertensive action by an exogenous angiotensin II in a non-anesthetized rat and the hypotensive effects of a renal hypertensive rat or a spontaneously hypertensive rat.
A strip of thoracic aorta of a male rabbit (2.5-3.0 kg) was prepared by the usual method and suspended in an organ bath containing well oxygenated Krebs-Henseleit solution at 37° C. The pA2 value was calculated according to the method described by H. O. Schild (British Journal of Pharmacology and Chemotherapeutics, 2, 189-206, 1947). A strip treated with 3-5 doses of a subject compound in an amount of 10^-6 M-10^-10 M and a strip treated with no drug were employed for obtaining a dose-response curve by angiotensin II. Log (dose ratio--1) was calculated from the shift of the dose-response curve of the subject compound, and pA2 value was obtained from the Schild plottings.

Data set [2] can be described thus: Toxicity test, oral, mice. Particulars: mouse, in vivo, ddY male mice 5 weeks old. How it is done: Several compounds of the present invention represented by the general formula (I) were administered orally by compulsion to ddY male mice of 5 weeks old (average weight, ca. 20 g).
Data set [3] concerns hypertensive action by angiotensin II. The data set can be described thus: Inhibition on the hypertensive action by an exogenous angiotensin II in conscious rats. The class given is in vivo, Spraque-Dawley (SD) male rats. The conditions noted are these: oral; for ED50: Rattus norvegicus, within 6 hours after administration, read-out: ED50 (dose required for inhibiting the hypertensive action by angiotensin II to the extent of 50%); for inhibitory effect on the hypertensive action by angiotensin II: angiotensin II 0.1 μg/kg i.v.
From the text: as §1
Anesthetized Spraque-Dawley (SD) male rats were cannulated into a femoral artery and a femoral vein and used for the experiment at the time when it has elapsed at least 24 hours after the operation. The hypertensive action caused by angiotensin II (0.1 μg/kg) which has been administered through the vein catheter was measured under conscious and unrestrained condition before and after administration of the compound. The artery catheter was connected to a pressure transducer to measure a mean blood pressure, and the subject compounds were orally administered in the form of a homogeneous suspension in a 0.5% aqueous carboxymethyl cellulose solution.
The intensities of the inhibitory effects within 6 hours after administration of the compound were examined on the basis of the dose of the compound required for inhibiting the hypertensive action by angiotensin II to the extent of 50% (ED50 values).

For a further data set, the system named is Fisher 344 male rats. Description: Antianxiety effect, elevated plus maze. Particulars: diazepam 3 mg/kg. The class given is in vivo. The protocol: The subject compounds were examined on their antianxiety effect with the light and dark box according to the method described by B. Costall et al. (Pharmacology Biochemistry and Behavior, 32, 777-785, 1989) and with the elevated plus maze by S. Pell et al. (Journal of Neuroscience Methods, 14, 149-167, 1985).
To Fisher 344 male rats (5-6 weeks old), the subject compounds were orally administered at a dose of 1-100 μg/kg in the form of a homogeneous suspension or solution in a 0.5% aqueous carboxymethyl cellulose solution. Among the four arms of the elevated plus maze (a device in which four arms are intersected crosswise and connected together at a height of 50 cm from the floor), the two arms with side walls are referred to as closed arms and the two arms without side walls are referred to as open arms. […] As the indices of the behavior, the latency until stepped out from the arm first placed to the other arm and the durations in the respective arms were measured, and the other behaviors were recorded. Diazepam was used as a control agent, and the drug administered group and the solvent administered group (group to which a 0.5% aqueous carboxymethyl cellulose solution was administered)were compared for the behaviors.

Broadly, the Kb is the affinity of an antagonist, worked out from how it opposes an agonist. A word on the LD50: it is the dose expected to kill half of the subjects tested. A higher LD50 goes with lower toxicity. By ED50 is commonly meant the dose that gives a 50% effect, or the effect in half of the subjects. In data set [1], `CCc1cc(OCc2ccc(-c3ccccc3-c3nnn[nH]3)cc2)cc(CC)n1` [Example 1, 2,6-Diethyl-4-[2'-(tetrazol-5-yl)biphenyl-4-yl]-methoxypyridine] showed a Kb of 5.25 nM. In data set [2], this molecule displayed an LD50 of more than 1000 mg/kg. For the same molecule, in data set [3], the ED50 is 0.6 mg/kg. For the same molecule, the “inhibitory effect on the hypertensive action by angiotensin II” value (“inhibitory effect” below) in data set [3] (dose of 1 mg/kg or less) is given as “significant inhibitory effects”.
In data set [1], `CCc1cc(OCc2ccc(-c3ccccc3-c3nnn[nH]3)cc2)cc(C)n1` [Example 3, 2-ethyl-6-methyl-4-[2'-(tetrazol-5-yl)biphenyl-4-yl]-methoxypyridine] gave a Kb of 5.75 nM. For the same molecule, the LD50 in data set [2] is more than 1000 mg/kg. Besides, the median effective dose (ED50) in data set [3] is 1.35 mg/kg.
Molecule `CCOc1c(OCc2ccc(-c3ccccc3-c3nnn[nH]3)cc2)cc(C)nc1C` [Example 12, 3-ethoxy-2,6-dimethyl-4-[2'-(tetrazol-5-yl)biphenyl-4-yl]methoxypyridine] had a Kb in data set [1] of 1.74 nM. This molecule also displayed an LD50 in data set [2] of more than 1000 mg/kg. Also, in data set [3], the ED50 turned out to be 0.56 mg/kg. Further, the “inhibitory effect” value in data set [3] (dose of 1 mg/kg or less) was “significant inhibitory effects”.
In data set [1], `CCc1nc(C)cc(OCc2ccc(-c3ccccc3-c3nnn[nH]3)cc2)c1OC` [Example 16, 2-ethyl-3-methoxy-6-methyl-4-[2'-(tetrazol-5-yl)biphenyl-4-yl]methoxypyridine] had an antagonist equilibrium constant (Kb) of 0.912 nM. The “inhibitory effect” value in data set [3] (dose of 1 mg/kg or less) was “significant inhibitory effects”.
With `Cc1cc(OCc2ccc(-c3ccccc3-c3nnn[nH]3)cc2)c(OCc2ccccc2)c(C)n1` [Example 21, 3-benzyloxy-2,6-dimethyl-4-[2'-(tetrazol-5-yl)biphenyl-4yl]-methoxypyridine], in data set [1], the Kb was 6.76 nM. Besides, the “inhibitory effect” value in data set [3] (3 mg/kg) was “significant inhibitory effects”.
The matching figures for `CCOC(=O)c1c(OCc2ccc(-c3ccccc3-c3nnn[nH]3)cc2)cc(CC)nc1C` [Example 44, 3-ethoxycarbonyl-6-ethyl-2-methyl-4-[2'-(tetrazol-5-yl)-biphenyl-4-yl]methoxypyridine]: 1 nM and “significant inhibitory effects”.
As for `CCc1nc(C)cc(OCc2ccc(-c3ccccc3-c3nnn[nH]3)cc2)c1C(=O)OC` [Example 46, 2-ethyl-3-methoxycarbonyl-6-methyl-4-[2'-(tetrazol-5-yl)-biphenyl-4-yl]methoxypyridine], in data set [1], the Kb is 0.617 nM. Also, the “inhibitory effect” value in data set [3] (dose of 1 mg/kg or less) is “significant inhibitory effects”.
`Cc1cc(OCc2ccc(-c3ccccc3-c3nnn[nH]3)cc2)c(C(=O)N(C)C)c(C)n1` [Example 53, 2,6-Dimethyl-3-(N,N-dimethylcarbamoyl)-4-[2'-(tetrazol-5-yl)bipbenyl-4-yl]methoxypyridine] had a Kb in data set [1] of 3.02 nM. In addition, the “inhibitory effect” value in data set [3] (3 mg/kg) is on record as “significant inhibitory effects”.
Take `Cc1cc(OCc2ccc(-c3ccccc3-c3nn[nH]n3)cc2)c(CO)c(C)n1` [Example 55, 3-Hydroxymethyl-2,6-dimethyl-4-[2'-(tetrazol-5-yl)biphenyl-4-yl]methoxypyridine]: in data set [1], the Kb is 12.3 nM. In other words, the double-digit nanomolar range.
For `COCc1c(OCc2ccc(-c3ccccc3-c3nnn[nH]3)cc2)cc(C)nc1C` [Example 57, 3-Methoxymethyl-2,6-dimethyl-4-[2'-(tetrazol-5-yl)-biphenyl-4-yl]methoxypyridine], the Kb in data set [1] was 6.17 nM. The “inhibitory effect” value in data set [3] (3 mg/kg) was “significant inhibitory effects”.
In data set [1], `CC(=O)OCc1c(OCc2ccc(-c3ccccc3-c3nnn[nH]3)cc2)cc(C)nc1C` [Example 67, 3-Acetoxymethyl-2,6-dimethyl-4-[2'-(tetrazol-5-yl)-biphenyl-4-yl]methoxypyridine] showed a Kb of 0.129 nM.
In the case of `Cc1cc(OCc2ccc(-c3ccccc3-c3nnn[nH]3)cc2)c(C=O)c(C)n1` [Example 68, 3-Formyl-2,6-dimethyl-4-[2'-(tetrazol-5-yl)biphenyl-4-yl]methoxypyridine], the Kb in data set [1] is 5.89 nM. This Kb lies about 46-fold higher than the previous one.
For the molecule `CCc1cc(OCc2ccc(-c3ccccc3C(=O)O)cc2)cc(CC)n1` [Example 81, 2,6-diethyl-4-(2'-carboxybiphenyl-4-yl)m ethoxypyridine], in data set [1], the Kb is 9.77 nM. In data set [3] (3 mg/kg), the “inhibitory effect” value is on record as “significant inhibitory effects”.
`CCOc1c(OCc2ccc(-c3ccccc3C(=O)O)cc2)cc(C)nc1C` [Example 83, 3-ethoxy-2,6-dimethyl-4-(2'-carboxybiphenyl-4yl)methoxypyridine] showed a Kb in data set [1] of 28.2 nM. In data set [2], this molecule had a 50% lethal dose (LD50) of more than 1000 mg/kg. For the same molecule, the ED50 in data set [3] was determined as 1.21 mg/kg. In data set [3] (dose of 1 mg/kg or less), the “inhibitory effect” value was “significant inhibitory effects”.
With `CN1C(=O)CN=C(c2ccccc2)c2cc(Cl)ccc21` [diazepam], in the data set with Fisher 344 male rats, the “duration out of the closed arm” value is “increased”, the “latency until stepped out from the arm first placed” value was “significantly decreased” and the transitions entry is “increased”.
